The values that follow are results of earlier work, collected in PMC9499927, “Peptidomimetics designed to bind to RAS effector domain are promising cancer therapeutic compounds” (Scientific Reports, 2022).

Data set [1] has as its system KRAS-mutant colon and pancreatic cancer mouse models. The text has this:
(§1) The unclear results obtained using these experimental approaches has led the scientific community to refocus on the search for direct RAS inhibitors. With this objective, two strategies are currently being followed: the first involves searching for molecules that block the interaction with non-effector RAS proteins that bind to the HVR and/or the allosteric lobe and which modulate RAS activity; and the second is looking for drugs that inhibit the binding of RAS with its effectors[20],[21]. In this context, Rigosertib, a compound that binds to the Ras-binding domain of multiple RAS effector ...

In data set [2] the test system is Ras-binding domain of multiple RAS effectors.
Description: as §1

For data set [3], the system named is patients with previously untreated metastatic pancreatic cancer. As to conditions: randomized phase 2/3 trial.
Description: as §1

As for `COc1cc(OC)c(/C=C/S(=O)(=O)Cc2ccc(OC)c(NCC(=O)O)c2)c(OC)c1` [Rigosertib], the Tumour growth inhibition result in data set [1] was “proven to inhibit tumour growth”. The Binding result in data set [2] is “binds to the Ras-binding domain of multiple RAS effectors”. The “Clinical benefit of addition to gemcitabine” value in data set [3] was “no benefit”.
